Test results published in US12023308B2, “Agents for reversing toxic proteinopathies” (THE BROAD INSTITUTE, INC., priority 2019, dated 2024).

Key:
TMED9 = biological target: T1, TMED9 (Homo sapiens, UniProt Q9BVK6); test: TMED9 abundance (IF) in patient iPSC-derived kidney organoids; type: cell-based; settings: 10 μM, 72 hours
T1 construct: TMED9 abundance in P cells at escalating temperatures (as indicated) with or without treatment with BRD-4780; endogenous in cells; host or cells: P cells (intact cells treated, then heated and lysed)
T1 sequence (Q9BVK6 38-235): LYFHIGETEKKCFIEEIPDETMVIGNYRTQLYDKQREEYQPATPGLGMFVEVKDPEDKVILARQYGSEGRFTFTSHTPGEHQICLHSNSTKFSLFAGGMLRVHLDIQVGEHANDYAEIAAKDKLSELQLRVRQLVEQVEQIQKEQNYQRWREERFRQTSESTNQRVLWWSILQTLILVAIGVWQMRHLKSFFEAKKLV
Procedure: Kidney organoids were immersion-fixed for 15 min in 4% PFA at 4° C. and subsequently frozen in OCT using dry ice and 100% ethanol. Six […] cryostat sections (CM1950, Leica) were thaw-mounted on microscope slides (Fisherbrand™ Superfrost™ Plus, Fisher Scientific) and kept in the cryostat (at −26° C.) for the duration of the sectioning process. Prior to immunostaining, organoid sections were rinsed in PBS for 5 min, incubated for 20 min at room temperature (RT) in PBS blocking solution containing 5% normal donkey serum (530-100ML, EMD Millipore) and 1.5% Tween® 20 (P1379, Sigma-Aldrich), then incubated overnight at 4° C. with primary antibodies diluted in the same blocking solution (1:500, monoclonal Armenian hamster anti-MUC1, Ab80952, Abcam; 1:500, monoclonal Fab-A-VSH anti-fsMUC1, AbD22655.4, Bio-Rad; 1:300 monoclonal Rat anti-E Cadherin [DECMA-1], ab11512, Abcam; 1:500 polyclonal Rabbit anti-Laminin, L9393-100UL, Sigma-Aldrich; 1:500 Na/K-ATPase, ab76020, Abcam; 1:300 Fluorescein labeled Lotus Tetragonolobus Lectin (LTL), FL-1321, Vector laboratories; 1:100, polyclonal, Rabbit anti-TMED9, 21620-1-AP, Proteintech). […]

[1] = system: N cells expressing P23H mutant rhodopsin; test: Cell death (DRAQ7) in N cells expressing P23H mutant rhodopsin; type: cell-based, human; settings: 5 μM, 72 hours
Procedure: To study apoptosis and cell death in N and P cells, 384 well Cell Carrier Ultra plates (6057308, Perkin Elmer), pre-coated with 0.25 mg/mL Synthemax II SC Substrate (3535, Corning) were used. For UPR branch activation experiments (FIGS. 2B, 9I, 9J and 9G) N and P cells were treated as described in the corresponding figure legends. CellEvent Caspase-3/7 Green Detection Reagent (C10423, Thermo Fisher Scientific®) and DRAQ7 (DR71000, Biostatus) were used at 1:5000 to monitor apoptosis and cell death respectively. Cells were imaged daily during 4 days to monitor viability and image analysis was performed as described below. For rescue experiments, P cells were plated on 96 well Cell Carrier Ultra microplates (6055302, Perkin Elmer) at 30,000 cells/well and cultured for 24 hr. […]
Caspase 3/7 activation and/or DRAQ7 staining were used to calculate the fraction of cells going through apoptosis and/or cell death, respectively. Single cells were first identified using the digital phase contrast channel and cell number was calculated. Fluorescence intensities were then measured and the threshold for Caspase 3/7 and DRAQ7 positive staining was determined. As an output, the fraction of live (neither caspase3/7 nor DRAQ7 signal detected), apoptotic (caspase3/7 positive) or dead cells (DRAQ7 positive) was calculated in each well at a particular time point.

CC(C)[C@@H]1[C@H]2CC[C@H](C2)[C@H]1N (racemic) [BRD-4780, 2-endo-amino-3-exo-isopropylbicyclo[2.2.1]heptane]
TMED9 abundance in patient organoids (TMED9): reduced TMED9 to levels comparable to cells in N1 organoids
viability of cells expressing P23H mutant [1]: significantly improved
